The results in this text go back to US20260347361A1, “LRRK2 INHIBITORS AND USES THEREOF” (NEURON23, INC, priority 2022, published 2026).

For this assay, the target named is T1, wt human LRRK2 (Homo sapiens, UniProt Q5S007).
T1 construct: wt human LRRK2, catalytic site, catalytic site (ThermoFisher/USA); purchased ThermoFisher
As to the kind of experiment: TR-FRET LanthaScreen Tb Kinase Activity Assay, inhibition of LRRK2 kinase. The class given is biochemical. Conditions: 2 nM wt human LRRK2, 400 nM fluorescein-ERM (LRRKtide) peptide, 38 µM ATP, 15 min pre-incubation, 120 min at room temperature. The method, then: In Table 2, activity is provided as the following: “+++”=IC50 less than 50 nM; “++”=IC50 between 50 nM and 200 nM; “+”=IC50> or =200 nM.
The compounds listed in Table 2 were tested for their inhibitory effect on LRRK2 kinase according to the following procedures.
The protocol for basic TR-FRET LanthaScreen Tb Kinase Activity Assay inhibitor studies were as follows. LanthaScreen Kinase Activity Assays (ThermoFisher/USA) to evaluate inhibitors were performed by addition of 100 nl of test compound in corresponding DMSO dilutions/5 μl of kinase/fluorescein-ERM(LRRKtide) peptide mixture, Compound & kinase were pre-incubated for 15 minutes, then 5 μl of ATP into 384 well small volume plates. After incubation for 120 minutes at room temperature, the detection reagents containing Tb-anti-pLRRKtide antibody were added to monitor phosphorylation level of peptide. Then, after 60 min minutes incubation at room temperature plates were read in Envision. Data analysis of emission ratios was according to LanthaScreen Tb Kinase Activity Assay protocol.
Kinase and assay components were adjusted to final concentrations according to the kit protocol. For LRRK2: 2 nM wt human LRRK2, catalytic site, catalytic site (ThermoFisher/USA), 400 nM peptide, 38 µM ATP in 1× Kinase Buffer A.
Basic protocol for TR-FRET LanthaScreen Tb Kinase Activity Assay inhibitor studies involved two steps:
Enzymatic step: Addition of […] of test compound in corresponding DMSO dilutions, 5 μL of kinase/substrate mixture, 5 μL of ATP into 384 well small volume plates. Incubation for 120 minutes at room temperature.
Detection step: Addition of 10 μL EDTA & antibody, read plate after 60 minutes. Data analysis of emission ratios according to KinEASE assay protocol.
Kinase and assay components were adjusted to final concentrations according to the kit protocol.

SMILES strings stand for the structures.

T1 sequence (Q5S007 970-2527 limits assumed): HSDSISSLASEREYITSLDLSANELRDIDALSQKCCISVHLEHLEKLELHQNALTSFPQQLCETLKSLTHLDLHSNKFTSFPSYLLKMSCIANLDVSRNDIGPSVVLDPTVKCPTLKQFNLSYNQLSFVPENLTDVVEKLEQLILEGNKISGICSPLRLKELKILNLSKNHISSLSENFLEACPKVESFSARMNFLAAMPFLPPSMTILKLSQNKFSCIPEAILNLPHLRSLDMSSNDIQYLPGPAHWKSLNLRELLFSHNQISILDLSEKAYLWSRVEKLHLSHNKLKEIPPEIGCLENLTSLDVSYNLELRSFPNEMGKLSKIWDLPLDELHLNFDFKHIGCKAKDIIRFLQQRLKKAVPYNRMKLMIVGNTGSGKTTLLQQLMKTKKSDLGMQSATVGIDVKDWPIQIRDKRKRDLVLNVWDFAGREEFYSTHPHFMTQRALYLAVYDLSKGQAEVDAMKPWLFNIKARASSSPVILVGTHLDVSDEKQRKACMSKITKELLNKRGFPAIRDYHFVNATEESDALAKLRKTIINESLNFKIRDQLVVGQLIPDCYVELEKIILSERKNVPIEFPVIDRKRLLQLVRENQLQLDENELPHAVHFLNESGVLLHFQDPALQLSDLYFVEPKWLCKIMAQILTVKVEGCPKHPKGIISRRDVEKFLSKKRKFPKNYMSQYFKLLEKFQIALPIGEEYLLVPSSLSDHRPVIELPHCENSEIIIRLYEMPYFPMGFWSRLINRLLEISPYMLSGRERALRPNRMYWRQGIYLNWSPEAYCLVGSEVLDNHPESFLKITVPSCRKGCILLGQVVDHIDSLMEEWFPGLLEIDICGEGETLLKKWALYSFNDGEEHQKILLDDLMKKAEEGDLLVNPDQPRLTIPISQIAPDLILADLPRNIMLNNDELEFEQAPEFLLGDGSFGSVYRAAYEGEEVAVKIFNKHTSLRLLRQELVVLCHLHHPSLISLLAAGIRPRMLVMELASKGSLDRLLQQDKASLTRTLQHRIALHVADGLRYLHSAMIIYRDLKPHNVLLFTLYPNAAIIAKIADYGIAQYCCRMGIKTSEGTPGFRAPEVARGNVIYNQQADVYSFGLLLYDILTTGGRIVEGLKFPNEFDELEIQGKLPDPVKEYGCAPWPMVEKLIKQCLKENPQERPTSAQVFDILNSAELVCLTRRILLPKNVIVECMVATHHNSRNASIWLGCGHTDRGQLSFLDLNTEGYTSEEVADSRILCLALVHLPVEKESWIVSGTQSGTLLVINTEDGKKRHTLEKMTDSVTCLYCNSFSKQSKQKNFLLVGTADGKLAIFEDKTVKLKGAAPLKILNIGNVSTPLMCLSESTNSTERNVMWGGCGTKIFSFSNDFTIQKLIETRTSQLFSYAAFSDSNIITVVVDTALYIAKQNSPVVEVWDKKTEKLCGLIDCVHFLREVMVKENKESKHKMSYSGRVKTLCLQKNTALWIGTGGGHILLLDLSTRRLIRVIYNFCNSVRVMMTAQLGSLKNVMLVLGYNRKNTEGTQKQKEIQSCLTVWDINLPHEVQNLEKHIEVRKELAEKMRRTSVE

`Fc1cccc(F)c1C1=Nc2c(Cl)cnn2-c2cc(N3CCCC3)ccc2N1` [3-chloro-5-(2,6-difluorophenyl)-9-(pyrrolidin-1-yl)-6H-benzo[f]pyrazolo[1,5-a][1,3,5]triazepine] displayed an IC50 of less than 50 nM.
The value for `Fc1cccc(F)c1C1=Nc2c(Cl)cnn2-c2cc(N3CC4CCC(C3)O4)ncc2N1` [3-(3-Chloro-5-(2,6-difluorophenyl)-6H-pyrazolo[1,5-a]pyrido[3,4-f][1,3,5]triazepin-9-yl)-8-oxa-3-azabicyclo[3.2.1]octane] was less than 50 nM; that for `C[C@H]1CN(c2cc3c(cn2)NC(c2c(F)cccc2F)=Nc2c(F)cnn2-3)C[C@H](C)O1` [(2S,6S)-4-(5-(2,6-difluorophenyl)-3-fluoro-6H-pyrazolo[1,5-a]pyrido[3,4-f][1,3,5]triazepin-9-yl)-2,6-dimethylmorpholine] was 50 to 200 nM.
The compound `CN(C)C(=O)c1ccc2c(c1)-n1ncc(Cl)c1N=C(c1c(F)cccc1F)N2` [3-chloro-5-(2,6-difluorophenyl)-N,N-dimethyl-6H-pyrazolo[1,5-a][1,3,5]benzotriazepine-9-carboxamide] came in with an IC50 of 50 to 200 nM.
For the compound `Fc1cccc(F)c1C1=Nc2c(Cl)cnn2-c2cc(N3CCNCC3)ccc2N1` [3-chloro-5-(2,6-difluorophenyl)-9-piperazin-1-yl-6H-pyrazolo[1,5-a][1,3,5]benzotriazepine], the IC50 is less than 50 nM.
The value for `C[C@H]1CN(c2cc3c(cn2)NC(c2c(F)cccc2F)=Nc2c(Cl)cnn2-3)C[C@H](C)O1` [(2S,6S)-4-[5-chloro-8-(2,6-difluorophenyl)-2,3,7,9,12-pentazatricyclo[8.4.0.02,6]tetradeca-1(10),3,5,7,11,13-hexaen-13-yl]-2,6-dimethyl-morpholine] was less than 50 nM; that for `Fc1cccc(N2CCOCC2)c1C1=Nc2c(Cl)cnn2-c2cc(N3CCOCC3)ccc2N1` [4-[3-chloro-5-(2-fluoro-6-morpholino-phenyl)-6H-pyrazolo[1,5-a][1,3,5]benzotriazepin-9-yl]morpholine] was more than 200 nM; that for `Fc1cccc(F)c1C1=Nc2c(Cl)cnn2-c2cc(N3CC4(COC4)C3)ccc2N1` [6-[3-chloro-5-(2,6-difluorophenyl)-6H-pyrazolo[1,5-a][1,3,5]benzotriazepin-9-yl]-2-oxa-6-azaspiro[3.3]heptane] was less than 50 nM.
The value for `Cc1cnn2c1N=C(c1c(F)cccc1F)Nc1cnc(N3CCOCC3)cc1-2` [4-(5-(2,6-difluorophenyl)-3-methyl-6H-pyrazolo[1,5-a]pyrido[3,4-f][1,3,5]triazepin-9-yl)morpholine] was less than 50 nM; that for `C[C@H]1COCCN1c1ccc2c(c1)-n1ncc(Cl)c1N=C(c1c(F)cccc1F)N2` [(3S)-4-[3-chloro-5-(2,6-difluorophenyl)-6H-pyrazolo[1,5-a][1,3,5]benzotriazepin-9-yl]-3-methyl-morpholine] was less than 50 nM; that for `CC(C)(O)c1ccc2c(c1)-n1ncc(Cl)c1N=C(c1c(F)cccc1F)N2` [Methyl 2-[3-chloro-5-(2,6-difluorophenyl)-6H-pyrazolo[1,5-a][1,3,5]benzotriazepin-9-yl]propan-2-ol] was 50 to 200 nM.
The value for `COC(=O)c1cnc2c(c1)-n1ncc(Cl)c1N=C(c1c(F)cccc1F)N2` [Methyl 5-chloro-8-(2,6-difluorophenyl)-2,3,7,9,11-pentazatricyclo[8.4.0.02,6]tetradeca-1(10),3,5,7,11,13-hexaene-13-carboxylate] was less than 50 nM; that for `Fc1cccc(F)c1C1=Nc2c(Cl)cnn2-c2cc(N3CCOCC3)ncc2N1` [4-(3-Chloro-5-(2,6-difluorophenyl)-6H-pyrazolo[1,5-a]pyrido[3,4-f][1,3,5]triazepin-9-yl)morpholine] was less than 50 nM; that for `CC(C)S(=O)(=O)NC(=O)c1ccc2c(c1)-n1ncc(Cl)c1N=C(c1c(F)cccc1F)N2` was more than 200 nM.
Take `COCCNC(=O)c1ccc2c(c1)-n1ncc(Cl)c1N=C(c1c(F)cccc1F)N2` [3-chloro-5-(2,6-difluorophenyl)-N-(2-methoxyethyl)-6H-pyrazolo[1,5-a][1,3,5]benzotriazepine-9-carboxamide]: the IC50 is less than 50 nM.
With `Fc1cccc(F)c1C1=Nc2c(Cl)cnn2-c2cc(N3CC4CC(C3)O4)ccc2N1` [3-[3-chloro-5-(2,6-difluorophenyl)-6H-pyrazolo [1,5-a][1,3,5]benzotriazepin-9-yl]-6-oxa-3-azabicyclo [3.1.1]heptane] the figure was less than 50 nM.
For `COC1CCN(c2ccc3c(c2)-n2ncc(Cl)c2N=C(c2c(F)cccc2F)N3)C1` (racemic) [3-chloro-5-(2,6-difluorophenyl)-9-(3-methoxypyrrolidin-1-yl)-6H-pyrazolo[1,5-a][1,3,5]benzotriazepine], the IC50 is less than 50 nM.
`Fc1cccc(F)c1C1=Nc2c(Cl)cnn2-c2cc(N3CCOCC3)cnc2N1` yielded an IC50 of less than 50 nM.
For the compound `Fc1cccc(F)c1C1=Nc2c(Cl)cnn2-c2cc(N3CCC4(CC3)COC4)ccc2N1` [7-[3-chloro-5-(2,6-difluorophenyl)-6H-pyrazolo[1,5-a][1,3,5]benzotriazepin-9-yl]-2-oxa-7-azaspiro[3.5]nonane], the IC50 was less than 50 nM.
The value for `Fc1cccc(F)c1C1=Nc2c(Cl)cnn2-c2cc(N3C[C@H]4C[C@@H]3CO4)ncc2N1` [(1R,4R)-5-[5-chloro-8-(2,6-difluorophenyl)-2,3,7,9,12-pentazatricyclo[8.4.0.02,6]tetradeca-1(10),3,5,7,11,13-hexaen-13-yl]-2-oxa-5-azabicyclo[2.2.1]heptane] was less than 50 nM.
`Fc1cccc(F)c1C1=Nc2c(Cl)cnn2-c2cc(N3CC(F)C3)ccc2N1` [3-chloro-5-(2,6-difluorophenyl)-9-(3-fluoroazetidin-1-yl)-6H-pyrazolo[1,5-a][1,3,5]benzotriazepine] registered an IC50 of less than 50 nM.
The value for `Fc1cccc(Cl)c1C1=Nc2c(Cl)cnn2-c2cc(N3CCOCC3)ncc2N1` [4-(3-chloro-5-(2-chloro-6-fluorophenyl)-6H-pyrazolo[1,5-a]pyrido[3,4-f][1,3,5]triazepin-9-yl)morpholine] was less than 50 nM; that for `Fc1cccc(F)c1C1=Nc2c(Cl)cnn2-c2cc(N3C[C@H]4CC[C@@H]3CO4)ccc2N1` [(1R,4R)-5-[3-chloro-5-(2,6-difluorophenyl)-6H-pyrazolo[1,5-a][1,3,5]benzotriazepin-9-yl]-2-oxa-5-azabicyclo[2.2.2]octane] was less than 50 nM.
With `O=S1(=O)CCN(c2ccc3c(c2)-n2ncc(Cl)c2N=C(c2c(F)cccc2F)N3)CC1` the figure was less than 50 nM; with `Fc1cc(F)c(C2=Nc3c(Cl)cnn3-c3cc(N4CCOCC4)ncc3N2)c(F)c1` [4-(3-chloro-5-(2,4,6-trifluorophenyl)-6H-pyrazolo[1,5-a]pyrido[3,4-f][1,3,5]triazepin-9-yl)morpholine], less than 50 nM.
`Fc1cccc(F)c1C1=Nc2c(Br)cnn2-c2cc(N3CCOCC3)ncc2N1` [4-(3-bromo-5-(2,6-difluorophenyl)-6H-pyrazolo[1,5-a]pyrido[3,4-f][1,3,5]triazepin-9-yl)morpholine] returned an IC50 of less than 50 nM.
With `CC1CN(c2ccc3c(c2)-n2ncc(Cl)c2N=C(c2c(F)cccc2F)N3)CC(C)O1` (stereo not drawn) [4-[3-chloro-5-(2,6-difluorophenyl)-6H-pyrazolo[1,5-a][1,3,5]benzotriazepin-9-yl]-2,6-dimethyl-morpholine] the figure was less than 50 nM.
The value for `O=C(NC1COC1)c1ccc2c(c1)-n1ncc(Cl)c1N=C(c1c(F)cccc1F)N2` [3-chloro-5-(2,6-difluorophenyl)-N-(oxetan-3-yl)-6H-benzo[f]pyrazolo[1,5-a][1,3,5]triazepine-9-carboxamide] was less than 50 nM.
`C[C@H]1CN(c2cc3c(cn2)NC(c2c(F)cccc2F)=Nc2c(F)cnn2-3)CCO1` [(S)-4-(5-(2,6-difluorophenyl)-3-fluoro-6H-pyrazolo[1,5-a]pyrido[3,4-f][1,3,5]triazepin-9-yl)-2-methylmorpholine] showed an IC50 of less than 50 nM.
The value for `CN1CCN(c2ccc3c(c2)-n2ncc(Cl)c2N=C(c2c(F)cccc2F)N3)CC1` [3-chloro-5-(2,6-difluorophenyl)-9-(4-methylpiperazin-1-yl)-6H-pyrazolo[1,5-a][1,3,5]benzotriazepine] was less than 50 nM; that for `COC(=O)c1ccc2c(c1)-n1ncc(Cl)c1N=C(c1c(F)cccc1F)N2` [Methyl 3-chloro-5-(2,6-difluorophenyl)-6H-pyrazolo[1,5-a][1,3,5]benzotriazepine-9-carboxylate] was less than 50 nM; that for `O=C(NO)c1ccc2c(c1)-n1ncc(Cl)c1N=C(c1c(F)cccc1F)N2` [3-chloro-5-(2,6-difluorophenyl)-6H-pyrazolo[1,5-a][1,3,5]benzotriazepine-9-carbohydroxamic acid] was less than 50 nM.
With `Fc1cccc(F)c1C1=Nc2c(Cl)cnn2-c2cc(N3CC[C@@H](F)C3)ccc2N1` [3-chloro-5-(2,6-difluorophenyl)-9-[(3R)-3-fluoropyrrolidin-1-yl]-6H-pyrazolo[1,5-a][1,3,5]benzotriazepine] the figure was less than 50 nM.

What is called IC50 is the point on the concentration scale where inhibition reaches its midpoint. Low readings indicate higher potency, high ones lower potency.
